The values that follow come from patent EP0840602B1, “USE OF A RETINOID FOR PREPARING AN ANTIBACTERIAL DRUG” (Pierre Fabre Dermo-Cosmetique, priority 1995, dated 1997).

SMILES strings stand for the structures.

Experiment [1] concerns St. aureus. In words: Minimal bactericidal concentration (CMB), subculture of the microplate on trypticase soy agar. Particulars: subculture 24-48 h at 32° C, second line of each compound in the table. The format is cell-based, Staphylococcus aureus. As for the experimental part: (§1) • Staphylococcus aureus 6538 P • Staphylococcus aureus de pathologies cutanées isolées de l'hôpital Rangueil Toulouse - (France)
(§2) • . Gélose Trypticase soja (Biomérieux)
(§3) Les solutions-mère des produits cités ci-dessous ont été préparées dans l'alcool puis dissoutes dans l'eau distillée stérile de façon à être en final à 200 µg/ml et environ 10° éthanolique (sous lumière jaune). • . Rétinal all Trans • . Rétinal 9 Cis (Sigma R 5754 - lot 62 H 84 43) • . Rétinal 13 Cis (Sigma R 6256 - lot 81 H 8440)
(§4) Le repiquage de la microplaque A sur une gélose trypticase soja préalablement coulée, permet après culture de 24-48 h à 32° C, la lecture de la concentration CMB = plus petite concentration ne permettant pas de croissance sur la gélose.

Experiment [2] has as its system St. epidermis. The experiment is described as above. The format is cell-based. Particulars: subculture 24-48 h at 32° C, second line of each compound in the table. The procedure:
as §2, §3, §4

Experiment [3] has as its system St. epidermis. Nature of the experiment: Minimal inhibitory concentration (CMI), broth microdilution in microplates. The format is cell-based. Particulars: 10^6 germes par ml, 24 h at 32° C, first line of each compound in the table. The procedure: as §3
(§5) Une distribution de 100 µl de bouillon Trypticase soja est réalisée dans chaque microcupule de la microplaque stérile (A).
(§6) Un témoin stérilité du milieu et un autre témoin de la vigueur de la souche sont réalisés en parallèle sur la microplaque.
(§7) L'ensemencement de la microplaque (A) a lieu sous la hotte après préparation de l'inoculum bactérien comme suit :
(§8) Les souches ayant été préalablement repiquées la veille sur gélose Trypticase soja, un inoculum 10^8 germes/ml est dispersé dans l'eau distillée stérile puis agité au vortex.
(§9) Les billes de verre assurant une bonne dispersion des souches, la mesure de la densité permet de préparer un inoculum adéquat par rapport à un étalonnage pré-établi et validé.
(§10) La répartition de la souche a lieu dans une deuxième microplaque (B) stérile par distribution de 100 µl d'inoculum par microcupule.
(§11) L'ensemencement a lieu par un repiquage de la microplaque (B) vers la microplaque (A), il se réalise ainsi une dilution au 1/100 de l'inoculum : la microplaque A contenant 10^6 germes par ml, peut être mise à l'étuve 24 h à 32° C.
(§12) La lecture de la plus grande dilution donnant lieu à une clarté identique au témoin stérilité du milieu, constitue la concentration minimale inhibitrice.
(In broth dilution the organism is exposed to a series of concentrations in liquid medium.)

For experiment [4], the system named is St. aureus. The description is as above. Type of experiment: cell-based, Staphylococcus aureus. Particulars: 10^6 germes par ml, 24 h at 32° C, first line of each compound in the table. The procedure:
as §1
• . Bouillon Trypticase soja (Biomérieux)
as §3, §5, §6, §7, §8, §9, §10, §11, §12

In a further experiment the test system is St. aureus 6538 P. In words: Bactericidal kinetics and D. value. The format is cell-based, Staphylococcus aureus. The procedure:
Le niveau d'efficacité, de l'ordre du microgramme, a été prouvé pour des souches de staphylocoques plurirésistantes notamment aux aminosides, tétracyclines et macrolides. L'efficacité bactéricide a pu être chiffrée. En effet, le rétinal à 0,1% a une D. value (temps nécessaire pour faire chuter la population du nombre de germes) sur Staphylococcus aureus 6538 P de 14,8 minutes avec un coefficient de corrélation de 0,999 en ce qui concerne la droite de régression linéaire reliant la population de germes au temps de contact germe-rétinaldéhyde.
La D. value du Rétinal à 0,1 % P/V dans une solution éthanolique à 20 % V/V a été recherchée sur St. aureus 6538 P.
La cinétique des prélèvements microbiens a été réalisée aux temps 15', 30', 60', 4h et 6h. L'inoculum de départ étant de 1,0.10^4 germes par ml, la neutralisation se réalise d'après les temps cités dans du Bouillon Trypticase Soja, supplémenté par 10 % de Tween 80. Le neutralisant a été validé au préalable.

Experiment [5] deals with adhésion des Gram positifs aux cornéocytes. In words: Adhesion of staphylococci to corneocytes according to Cole and Silverberg (1986). Particulars: doses infrabactériostatiques. The format is cell-based. The source says:
Le rétinaldéhyde et ses isomères dont le 9 et le 13 cis-rétinaldéhyde possèdent une activité ciblée sur les Gram positifs, en particulier du genre Staphylococcus dont le staphylocoque doré. […] L'efficacité a pu être mise en évidence par le calcul des concentrations minimales inhibitrices et bactéricides sur des souches polyrésistantes issues de prélèvements cutanés isolés en milieu hospitalier et par études de l'adhésion du staphylocoque aux cornéocytes selon Cole et Silverber (1986).
• 1. Thabaut A. et Meyran M. (1989) Activité bactéricide comparée de quatorze antibiotiques sur staphylococcus aureus. Path. Biol. 37 : 321 - 328. • 2. Cole G.W.; Silvergerg N.L (1986) The adherence of staphylococcus aureus to human corneocytes. Arch. Dermatol. 122 : 166 - 169.

A further experiment has as its system staphylococcus aureus. Particulars: from reference 1 (Thabaut and Meyran 1989); cited from earlier work.

For `CC1=C(/C=C/C(C)=C\C=C\C(C)=C\C=O)C(C)(C)CCC1` [RETINAL 9 Cis, 9 cis-rétinaldéhyde], the CMB with St. aureus [1] is listed as 0,0025%; with St. epidermis [2] it was 0,0006%. The CMI is recorded as 0,0001% in the experiment with St. epidermis [3] and 0,0003% in the experiment on St. aureus [4].

As for `CC1=C(/C=C/C(C)=C/C=C/C(C)=C\C=O)C(C)(C)CCC1` [RETINAL 13 Cis, 13 cis-rétinaldéhyde], the CMB in the experiment on St. aureus [1] is 0,0025%; in the experiment on St. epidermis [2] it was 0,0006%. The CMI is 0,0001% in the experiment on St. epidermis [3] and 0,0006% in the experiment with St. aureus [4].

Consider `CC1=C(/C=C/C(C)=C/C=C/C(C)=C/C=O)C(C)(C)CCC1` [RETINALDEHYDE ALL TRANS, rétinaldéhyde tout trans], for which the results for the CMB with St. aureus [1] and with St. epidermis [2] were 0,0012% and 0,0003%, respectively. Moreover, the CMI is listed as 0,0001% with St. epidermis [3] and 0,0003% in the experiment with St. aureus [4].

Regarding `CC(C=CC=C(C)C=CC1=C(C)CCCC1(C)C)=CC=O` [Rétinal, rétinal], the D. value in the experiment with St. aureus 6538 P (Rétinal 0,1 % P/V in 20 % V/V ethanolic solution, St. aureus 6538 P, linear regression r = 0,99) is given as 14,8 mn. The “surviving germs, Temps 15” value in the experiment on St. aureus 6538 P (Rétinal 0,1 % P/V in 20 % V/V ethanolic solution, contact 15', starting inoculum 1,0.10^4 germes par ml) is reported as 1,4.10^3. In addition, the “surviving germs, Temps 30” value in the experiment with St. aureus 6538 P (Rétinal 0,1 % P/V in 20 % V/V ethanolic solution, contact 30', starting inoculum 1,0.10^4 germes par ml) is 1,3.10^2. Moreover, in the experiment on St. aureus 6538 P (Rétinal 0,1 % P/V in 20 % V/V ethanolic solution, contact 60', starting inoculum 1,0.10^4 germes par ml), the “surviving germs, Temps 60” value is 0. Also, the “surviving germs, Temps 4h” value in the experiment with St. aureus 6538 P (Rétinal 0,1 % P/V in 20 % V/V ethanolic solution, contact 4h, starting inoculum 1,0.10^4 germes par ml) stood at 0. Besides, the “surviving germs, Temps 6h” value in the experiment on St. aureus 6538 P (Rétinal 0,1 % P/V in 20 % V/V ethanolic solution, contact 6h, starting inoculum 1,0.10^4 germes par ml) turned out to be 0. Besides, the “Log, Temps 15” value in the experiment with St. aureus 6538 P (log of surviving germs, Rétinal 0,1 %, contact 15') was 3,15. Further, the “Log, Temps 30” value in the experiment with St. aureus 6538 P (log of surviving germs, Rétinal 0,1 %, contact 30') is 2,11. The “D. value (temps nécessaire pour faire chuter la population du nombre de germes)” value in the experiment on St. aureus 6538 P (rétinal à 0,1%, Staphylococcus aureus 6538 P, coefficient de corrélation 0,999) is 14,8 minutes. For the same compound, the “inhibition de l'adhésion des Gram positifs aux cornéocytes” value in experiment [5] is reported as “activité inhibant d'adhésion des Gram positifs aux cornéocytes”.

In the case of `CC[C@H]1OC(=O)[C@H](C)[C@@H](O[C@H]2C[C@@](C)(OC)[C@@H](O)[C@H](C)O2)[C@H](C)[C@@H](O[C@@H]2O[C@H](C)C[C@H](N(C)C)[C@H]2O)[C@](C)(O)C[C@@H](C)C(=O)[C@H](C)[C@@H](O)[C@]1(C)O` [érythromycine], the “temps pour faire chuter la population microbienne de 2 Log 10” value in the experiment with staphylococcus aureus was 48 heures.
